Results published in the supplement of paper PMC10307832.

Key:
Experiment in all cases: relative viability (nuclei count vs DMSO), 5 days (fraction); higher = more cells survive
XMD14-99 + Crizotinib = compound: CN1CCN(CC1)C2=CC(=C(C=C2)NC3=NC(=C(S3)C(=O)C4=C(C=CC=C4Cl)Cl)N)OC [XMD14-99] + C[C@@H](Oc1cc(-c2cnn(C3CCNCC3)c2)cnc1N)c1c(Cl)ccc(F)c1Cl [Crizotinib] (partner 1 µM)
Method in brief: (§1)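 Relative viability was taken as the ratio of nuclei in treated wells to nuclei in vehicle wells. Lung cancer cell lines in 1536-well plates received compounds by pin tool one day after seeding, either one drug alone or a fixed anchor-drug dose plus five library-drug doses (not always all listed) in √10 steps. Nuclei were counted on 4× images after 5 days of treatment, and values are medians of duplicate plates.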

XMD14-99 + Linsitinib = compound: CN1CCN(CC1)C2=CC(=C(C=C2)NC3=NC(=C(S3)C(=O)C4=C(C=CC=C4Cl)Cl)N)OC [XMD14-99] + C[C@]1(O)C[C@@H](c2nc(-c3ccc4ccc(-c5ccccc5)nc4c3)c3c(N)nccn32)C1 [Linsitinib] (partner 1 µM)
Method in brief: as §1

XMD14-99 + Pictilisib = compound: CN1CCN(CC1)C2=CC(=C(C=C2)NC3=NC(=C(S3)C(=O)C4=C(C=CC=C4Cl)Cl)N)OC [XMD14-99] + CS(=O)(=O)N1CCN(Cc2cc3nc(-c4cccc5[nH]ncc45)nc(N4CCOCC4)c3s2)CC1 [Pictilisib] (partner 1 µM)
Method in brief: as §1

XMD14-99 + Tozasertib = compound: CN1CCN(CC1)C2=CC(=C(C=C2)NC3=NC(=C(S3)C(=O)C4=C(C=CC=C4Cl)Cl)N)OC [XMD14-99] + Cc1cc(Nc2cc(N3CCN(C)CC3)nc(Sc3ccc(NC(=O)C4CC4)cc3)n2)n[nH]1 [Tozasertib] (partner 0.1 µM)
Method in brief: as §1

XMD14-99 + OSI-027 = compound: CN1CCN(CC1)C2=CC(=C(C=C2)NC3=NC(=C(S3)C(=O)C4=C(C=CC=C4Cl)Cl)N)OC [XMD14-99] + COc1cccc2cc(-c3nc([C@H]4CC[C@H](C(=O)O)CC4)n4ncnc(N)c34)[nH]c12 [OSI-027] (partner 0.5 µM)
Method in brief: as §1

Row | Cell Line | relative viability (XMD14-99 + Crizotinib; first compound 0.08 µM) | relative viability (XMD14-99 + Crizotinib; first compound 2.53 µM) | relative viability (XMD14-99 + Crizotinib; first compound 8 µM) | relative viability (XMD14-99 + Linsitinib; first compound 0.08 µM) | relative viability (XMD14-99 + Linsitinib; first compound 0.8 µM) | relative viability (XMD14-99 + Linsitinib; first compound 2.53 µM) | relative viability (XMD14-99 + Linsitinib; first compound 8 µM) | relative viability (XMD14-99 + Pictilisib; first compound 0.08 µM) | relative viability (XMD14-99 + Pictilisib; first compound 0.8 µM) | relative viability (XMD14-99 + Pictilisib; first compound 2.53 µM) | relative viability (XMD14-99 + Pictilisib; first compound 8 µM) | relative viability (XMD14-99 + Tozasertib; first compound 0.08 µM) | relative viability (XMD14-99 + Tozasertib; first compound 0.8 µM) | relative viability (XMD14-99 + Tozasertib; first compound 2.53 µM) | relative viability (XMD14-99 + Tozasertib; first compound 8 µM) | relative viability (XMD14-99 + OSI-027; first compound 0.08 µM) | relative viability (XMD14-99 + OSI-027; first compound 0.8 µM) | relative viability (XMD14-99 + OSI-027; first compound 2.53 µM) | relative viability (XMD14-99 + OSI-027; first compound 8 µM) | relative viability (XMD14-99 + Crizotinib; first compound 0.8 µM)
1 | NCI-H661 | 0.897 | 0.894 | 0.838 | 0.5 | 0.58 | 0.502 | 0.441 | 0.375 | 0.322 | 0.389 | 0.298 | 0.355 | 0.337 | 0.37 | 0.338 | 0.777 | 0.673 | 0.498 | 0.416 | –
2 | NCI-H727 | 0.889 | 0.561 | 0.381 | 0.303 | 0.284 | 0.247 | 0.297 | 0.551 | 0.403 | 0.321 | 0.276 | 0.661 | 0.558 | 0.532 | 0.342 | 0.617 | 0.493 | 0.584 | 0.383 | 0.704
3 | NCI-H838 | 0.877 | 0.82 | 0.557 | 0.948 | 0.932 | 0.92 | 0.681 | 0.434 | 0.411 | 0.38 | 0.296 | 0.265 | 0.24 | 0.269 | 0.194 | 0.481 | 0.403 | 0.356 | 0.298 | 0.798
4 | NCI-H1355 | 1.15 | 0.949 | 0.879 | 0.796 | 0.809 | 0.74 | 0.633 | 0.483 | 0.439 | 0.378 | 0.327 | 0.54 | 0.519 | 0.408 | 0.324 | 0.395 | 0.367 | 0.337 | 0.292 | 1.11
5 | NCI-H1437 | 0.843 | 0.822 | 0.684 | 0.961 | 0.983 | 0.735 | 0.387 | 0.392 | 0.416 | 0.34 | 0.214 | 0.426 | 0.336 | 0.321 | 0.219 | 0.892 | 0.842 | 0.804 | 0.68 | 0.905
6 | NCI-H1651 | 0.869 | 0.934 | 0.825 | 0.941 | 0.886 | 0.904 | 0.84 | 0.547 | 0.521 | 0.593 | 0.461 | 0.767 | 0.645 | 0.657 | 0.556 | 0.815 | 0.691 | 0.622 | 0.531 | 0.799
7 | NCI-H1666 | 0.926 | 0.779 | 0.575 | 0.809 | 0.834 | 0.704 | 0.625 | 0.449 | 0.448 | 0.403 | 0.343 | 0.61 | 0.582 | 0.498 | 0.537 | 0.881 | 0.731 | 0.799 | 0.651 | 0.899
8 | NCI-H1734 | 0.634 | 0.618 | 0.638 | 0.854 | 0.897 | 0.823 | 0.745 | 0.436 | 0.447 | 0.513 | 0.389 | 0.288 | 0.244 | 0.248 | 0.227 | 0.556 | 0.524 | 0.55 | 0.437 | 0.713
